Assay results taken from US8541415B2 (University of Pittsburgh—of the Commonwealth System of …, priority 2008, dated 2013).
Read-outs that look alike come from different tables or passages of the source.

Columns and labels:
[1] = biological target: T1, Nef:Hck-YEEI complex (Homo sapiens, UniProt P08631)
Target sequence in this assay (P03407 2-210): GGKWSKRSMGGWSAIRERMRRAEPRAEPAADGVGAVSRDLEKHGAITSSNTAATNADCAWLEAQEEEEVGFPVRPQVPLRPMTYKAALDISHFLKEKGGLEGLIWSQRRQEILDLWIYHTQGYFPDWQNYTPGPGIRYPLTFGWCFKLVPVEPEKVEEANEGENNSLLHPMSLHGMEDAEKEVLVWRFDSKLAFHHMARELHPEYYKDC
Target sequence in this assay (P08631 other isoform, or with tags, fused parts or gaps): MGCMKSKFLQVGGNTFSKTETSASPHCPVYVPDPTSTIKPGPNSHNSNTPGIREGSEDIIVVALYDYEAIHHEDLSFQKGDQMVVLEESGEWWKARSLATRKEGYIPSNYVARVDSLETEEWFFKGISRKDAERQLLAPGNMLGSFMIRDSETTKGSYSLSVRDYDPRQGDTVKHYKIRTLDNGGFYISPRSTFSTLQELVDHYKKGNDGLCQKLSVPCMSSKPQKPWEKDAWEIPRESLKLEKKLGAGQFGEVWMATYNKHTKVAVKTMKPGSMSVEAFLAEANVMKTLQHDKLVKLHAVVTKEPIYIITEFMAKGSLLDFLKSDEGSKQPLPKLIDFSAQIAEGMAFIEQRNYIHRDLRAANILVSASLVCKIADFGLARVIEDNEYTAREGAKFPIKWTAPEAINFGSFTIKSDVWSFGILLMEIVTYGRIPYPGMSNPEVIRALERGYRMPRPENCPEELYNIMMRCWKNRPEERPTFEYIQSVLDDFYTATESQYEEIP
Experimental: For the liquid growth assay, yeast strain W303a was co-transformed with the required plasmids, seeded at an initial density of OD600nm=0.05 units in SD/-U-T medium, and incubated for 21 h at 30° C.
Aliquots of yeast cultures used for the spot assay were grown in SD/-U-T medium plus galactose for 18 h. […] Aliquots of each lysate (0.2 OD600nm units) were separated via SDS-PAGE, transferred to PVDF membranes, and probed for protein phosphotyrosine content with a combination of the anti-phosphotyrosine antibodies PY99 (Santa Cruz Biotechnology, Santa Cruz, Calif.) and PY20 (Transduction Laboratories, Lexington, Ky.).
Yeast strain W303a was co-transformed with Hck-YEEI (SE0 ID NO: 4) and Nef expression plasmids and grown to an OD600nm of 0.05. Cells (100 μL) were plated in duplicate wells of a 96-well plate in the presence of each compound from the Chempiv kinase-biased inhibitor library (Chempiv, Inc., San Diego, Calif.). All compounds were initially screened at 10 μM with 0.5% DMSO as carrier solvent. […] Cultures were incubated at 30° C., and the OD60nm was measured at 0 and 22 h.

[2] = system: U87MG cells; conditions: human
Experimental: (§1) Lead compounds from the yeast screen were evaluated for activity in a Nef-dependent HIV replication assay. For these experiments, U87MG astroglioma cells engineered to express the HIV-1 co-receptors CD4 and CXCR4 were employed. Replication of HIV-1 NL4-3 is dependent upon an intact viral nef gene in these cells, making this system suitable to evaluate leads from the Nef-directed screen. U87MG cells were infected with HIV-1 in the presence of the top five compounds identified in the yeast screen, and HIV replication was monitored as p24 release into the culture supernatant 4 days later, as known in the art. As known in the art, “p24” refers to a constituent protein of the capsid of HIV-1.
(§2) The data of Table 1 are presented as percent p24 release relative to control in the absence of compound. […] Data are expressed as percent viable cells relative to untreated control culture.

[3] = system: HIV-1 strain NL4-3; test: microbe, parasite or virus in culture; format: cell-based; conditions: for IC50 / activity at 5 µM: Human immunodeficiency virus 1, NL43, U-87 MG; for Suppression of HIV replication: p24 release 4 days later, leads from yeast screen; for activity at 5 µM: 96 h, read-out: HIV p24% Control @ day 4; for Anti-HIV activity (words, structure-activity comment on Table 1): 5 μM, p24 day 4; for Inhibition of pseudotyped NL43 HIV-1 replication: FIGS. 1-3
Experimental: as §1, §2
It is understood that “strongest” and like terms in the context of inhibitors identified in a library screen refer to compounds that inhibit at the lowest concentrations. For these experiments, the U87MG astroglioma cell line was used as a model system. […] U87MG cells were infected with HIV-1 strain NL4-3 as well as an isogenic variant that fails to express Nef (ΔNef), over a wide range of viral titers and in the presence of each compound at 5 μM. Viral replication was assessed as HIV p24 antigen release into the culture supernatant 4 and/or 5 days later. Methods for the assay of p24 in culture supernatant are well known in the art and include, for example without limitation, immunochemical methods.

[4] = system: Nef:Hck-YEEI complex; conditions: Z'-Lyte dose-response, FIG. 7A
[5] = system: HIV-ΔNef mutant (NL4-3 that fails to express Nef); test: Replication of Nef-defective HIV in U87MG cells (p24 ELISA); conditions: p24 ELISA day 5, FIG. 8, for Ma even at 10 μM
Experimental: HIV p24 release was determined by ELISA at day 5 following the addition of the DFP-analogs. […] U87MG cells were infected a viral density of 500 pg/ml. p24 as determined by ELISA.
To address whether Nef is required for the anti-retroviral effects of these compounds, HIV replication assays in U87MG cells infected with either wild-type or Nef-defective HIV were carried out.
Viral replication was monitored by measuring p24 protein levels in the culture supernatant 4 days after infection by standard ELISA-based techniques. Test compounds were added to the culture 30 min prior to infection with HIV, and DMSO was used as the carrier solvent at a final concentration of 0.1%.

[6] = biological target: T1, Nef:Hck-YEEI complex; test: biochemical
Target sequence in this assay (P08631 with tags, fused parts or gaps isoform P08631-3, other chains not shown): as the sequence (P08631 other isoform, or with tags, fused parts or gaps) above

[7] = biological target: T1, Nef:Hck-YEEI complex; conditions: Z'-Lyte dose-response, FIG. 7
Target sequence in this assay (P08631 with tags, fused parts or gaps isoform P08631-3, other chains not shown): as the sequence (P08631 other isoform, or with tags, fused parts or gaps) above

Compound | Cytotoxicity, Viable cell % control ([2]; 96 h, 30 μM) | activity at 5 µM [3] | other results
CN1CCN(C2CCC(n3cc(-c4ccc(Oc5ccccc5)cc4)c4c(N)ncnc43)CC2)CC1 (stereo not drawn) [Compound A-419259] | – | – | Tyrosine phosphorylation of yeast proteins ([1]; inhibitor-treated yeast cultures, anti-phosphotyrosine immunoblot): decrease in tyrosine phosphorylation of yeast proteins to control levels; Reversal of growth arrest compared with Nef PxxP mutation ([1]; liquid yeast cultures, 5 μM): nearly as effective as mutation of the Nef PxxP motif; Reversal of growth suppression induced by Nef:Hck-YEEI ([1]; liquid yeast cultures, OD 600 nm, at both 1 μM and 5 μM vs untreated cultures): significantly reversed the growth suppression
O=S(=O)(Nc1nc2ccccc2nc1Nc1ccc2c(c1)OCCO2)c1ccc(Cl)cc1 [Compound Ia, 4-Chloro-N-[3-(2,3-dihydro-benzo[1,4]dioxin-6-ylamino)-quinoxalin-2-yl]-benzenesulfonamide] | – | – | Concentration up to which not cytotoxic [2]: > 50 µM; IC50 ([3]; read-out: IC50, HIV replication, U87MG cells expressing CD4 and CXCR4, HIV-1 NL4-3, concentration-response): ~0.13 µM; Suppression of HIV replication ([3]; U87MG cells): significantly suppressed HIV replication; melting point: 257 to 258 °C
O=S(=O)(Nc1nc2ccccc2nc1Nc1ccc2ccccc2c1)c1ccccc1 [Compound Q1] | 98 % control | 4% | –
COc1ccc(OC)c(Nc2nc3ccccc3nc2NS(=O)(=O)c2ccc(Cl)cc2)c1 [Compound Q2] | 100 % control | 10% | –
COc1ccc(Nc2nc3ccccc3nc2NS(=O)(=O)c2ccc(Cl)cc2)cc1OC [Compound Q3] | 100 % control | 13% | Anti-HIV activity (words, structure-activity comment on Table 1) ([3]; U87MG cells): one of the most active compounds
O=S(=O)(Nc1nc2ccccc2nc1Nc1cccc2ccccc12)c1ccccc1 [Compound Q4] | 100 % control | 26% | –
COc1ccc(Nc2nc3ccccc3nc2NS(=O)(=O)c2ccc(Cl)cc2)c(OC)c1 [Compound Q5] | 96 % control | 26% | –
Nc1ccc(S(=O)(=O)Nc2nc3ccccc3nc2Nc2ccc3ccccc3c2)cc1 [Compound Q6] | 92 % control | 40% | –
O=S(=O)(Nc1nc2ccccc2nc1Nc1ccccc1)c1ccccc1 [Compound Q7] | 97 % control | 42% | –
COc1ccc(Nc2nc3ccccc3nc2NS(=O)(=O)c2ccc(C)cc2)c(OC)c1 [Compound Q8] | 90 % control | 55% | –
CCOc1ccccc1Nc1nc2ccccc2nc1NS(=O)(=O)c1ccc(C)cc1 [Compound Q9] | 100 % control | 60% | –
COc1ccc2nc(NS(=O)(=O)c3ccccc3)c(Nc3cc(OC)c(OC)c(OC)c3)nc2c1 [Compound Q10] | 95 % control | 62% | –
O=S(=O)(Nc1nc2ccccc2nc1Nc1ccc(O)cc1)c1ccccc1 [Compound Q11] | 88 % control | 68% | –
COc1ccc(Nc2nc3ccccc3nc2NS(=O)(=O)c2ccc(C)cc2)cc1OC [Compound Q13] | 91 % control | 82% | –
COc1ccccc1Nc1nc2ccccc2nc1NS(=O)(=O)c1ccccc1 [Compound Q14] | 93 % control | 87% | –
Cc1ccc(S(=O)(=O)Nc2nc3ccccc3nc2Nc2ccc3c(c2)OCCO3)cc1 [Compound Q15] | 96 % control | 88% | –
CCOc1ccc(S(=O)(=O)Nc2nc3ccccc3nc2Nc2ccccc2)cc1 [Compound Q16] | 100 % control | 91% | –
COc1ccc(Nc2nc3ccccc3nc2NS(=O)(=O)c2ccccc2)cc1OC [Compound Q17] | 97 % control | 100% | Anti-HIV activity (words, structure-activity comment on Table 1) ([3]; U87MG cells): one of the least active

Compound | Cytotoxicity, Viable cell % control ([2]; 96 h, 30 μM) | activity at 5 µM [3] | other results
CCOc1ccc(S(=O)(=O)Nc2nc3ccccc3nc2Nc2ccc(OC)cc2)cc1 [Compound Q18] | 99 % control | 112% | –
O=S(=O)(Nc1nc2ccccc2nc1Nc1cccc(O)c1)c1ccccc1 [Compound Q19] | 92 % control | 114% | –
COc1ccc(Nc2nc3ccccc3nc2NS(=O)(=O)c2ccccc2)cc1 [Compound Q20] | 89 % control | 119% | –
O=S(=O)(Nc1nc2ccccc2nc1Nc1ccc2ccccc2c1)c1ccc(Cl)cc1 [Compound Q21, 4-Chloro-N-[3-(naphthalen-2-ylamino)-quinoxalin-2-yl]-benzenesulfonamide] | – | – | Inhibition of pseudotyped NL43 HIV-1 replication ([3]; U87MG cells): potent inhibitors of viral infection; melting point: 222 to 224 °C
O=S(=O)(Nc1nc2ccccc2nc1Nc1cccc2ccccc12)c1ccc(Cl)cc1 [Compound Q22, 4-Chloro-N-[3-(naphthalen-1-ylamino)-quinoxalin-2-yl]-benzenesulfonamide] | – | – | Selectivity wild-type vs Nef-deficient NL43 HIV-1 ([3]; U87MG cells infected with wild-type or Nef-deficient virus, FIG. 3): selective and more potent at inhibiting the replication of wild-type virus; Inhibition of pseudotyped NL43 HIV-1 replication ([3]; U87MG cells): potent inhibitors of viral infection; melting point: 262 to 265 °C
OCCNc1ncnc2oc(-c3ccccc3)c(-c3ccccc3)c12 [IIIL] | 94 % control | 93% | –
OCCCNc1ncnc2oc(-c3ccccc3)c(-c3ccccc3)c12 [IIIa, 3-(5,6-diphenylfuro[2,3-d]pyrimidin-4-ylamino)propan-1-ol] | 95 % control | 20% | Increase in potency in the presence of Nef (Nef:Hck complex vs Hck alone) [4]: 2 fold; Cytotoxicity against U87MG cells ([2]; 96 h, 30 μM): neither DFP-4AP nor any of the other diphenylfuropyrimidine analogs displayed significant cytotoxicity; IC50 ([3]; 120 h, read-out: IC50, HIV-1 replication (viral p24 release), U87MG cells, HIV strain NL4-3, p24 ELISA 5 days later, FIG. 5C): 6 µM; HIV replication, p24 release ([3]; U87MG cells, HIV-1 NL4-3, compound at 5 μM, 4 and/or 5 days, FIG. 6): undetectable levels; IC50, wild-type HIV replication ([3]; U87MG cells, wild-type NL4-3, p24 ELISA day 5, FIG. 8): low μM range; Effect on replication of HIV-ΔNef mutant [5]: no effect; IC50 ([6]; IC50, Nef-induced Hck activation (Nef:Hck complex kinase activity), in vitro, peptide substrate, triplicate, FIG. 5B legend): 4 µM; IC50 ([6]; IC50, kinase activity of Nef:Hck-YEEI complex, dose response study, FIG. 5B, text b88): ~3 µM
c1ccc(-c2oc3ncnc(NCc4ccco4)c3c2-c2ccccc2)cc1 [IIIb] | 109 % control | 8% | –
Nc1ncnc2oc(-c3ccco3)c(-c3ccco3)c12 [IIIc] | – | 20% | –
Cc1ccc(-c2oc3ncnc(N)c3c2-c2ccc(C)cc2)cc1 [IIId] | 90 % control | 29% | –
c1ccc(-c2oc3ncnc(NCCN4CCOCC4)c3c2-c2ccccc2)cc1 [IIIe] | 89 % control | 39% | –
c1ccc(-c2oc3ncnc(NCCCN4CCOCC4)c3c2-c2ccccc2)cc1 [IIIf] | 99 % control | 47% | –
O=C(O)CNc1ncnc2oc(-c3ccccc3)c(-c3ccccc3)c12 [IIIg] | 100 % control | 58% | –
O=C(Nc1ncnc2oc(-c3ccccc3)c(-c3ccccc3)c12)c1ccco1 [IIIh] | 89 % control | 59% | –
COc1ccc(-c2oc3ncnc(N)c3c2-c2ccccc2)cc1 [IIIj] | 97 % control | 73% | –
c1ccc(-c2oc3ncnc(NCCCc4ccco4)c3c2-c2ccccc2)cc1 [IIIq, N-(3-(furan-2-yl)propyl) 5,6-diphenylfuro[2,3-d]pyrimidin-4-amine] | – | – | Inhibition of Nef:Hck complex [7]: enhanced both potency and efficacy for the Nef:Hck complex vs. Hck alone; IC50 ([3]; 120 h, read-out: IC50, wild-type HIV replication, U87MG cells, wild-type NL4-3, p24 ELISA day 5, FIG. 8): ≤ 1 µM; Effect on replication of HIV-ΔNef mutant [5]: Neither IIIm nor IIIq shows inhibition
Cc1nc2sc(-c3nc4ccccc4[nH]3)c(N)c2c(C)c1Cl [IIa] | – | – | Concentration up to which not cytotoxic [2]: > 50 µM; Suppression of HIV replication ([3]; U87MG cells): significantly suppressed HIV replication
